What was measured:
[1] = biological target: T1, CGRP receptor (Homo sapiens, UniProt O60894+Q16602); conditions: orally disintegrating tablet; cited from earlier work
T1 construct: host or cells: human patients (clinical use)

[2] = tested on: SARS-CoV-2; assay type: cell-based
[3] = cited from earlier work
[4] = biological target: nsp14-nsp10 protein complex (Severe acute respiratory syndrome coronavirus 2, UniProt P0DTD1); assay: nsp14 ExoN activity assay with nsp14-nsp10 complex (gel-based, 32P-labelled H4 RNA); assay type: biochemical, SARS-CoV-2
Protocol: (§1) Both RNAs were labelled at their 5' end with [^32P]-γ-ATP and T4 Polynucleotide Kinase (Ambion) in a standard reaction. MicroSpin G-50 columns (Cytiva) were used to remove excess [^32P]-γ-ATP. The synthetic RNAs were resuspended in 10 mM of Tris-HCI pH 8.0 and incubated 10 min at 80°C followed by 45 min at 37°C. • Different concentrations (µM) of rimegepant were incubated with 300 nM of nsp15 or with 40 nM-160 nM of nsp14-nsp10 proteins (7 minutes at room temperature), before initiating the in vitro assay through the addition of the P^32-RNA substrate (50 nM). The activity assays were performed in a final volume of 12 µl containing the activity buffer 50 mM HEPES pH 7.4, 1 mM DTT, 5 mM MgCl2 in case of nsp14-nsp10 complex, and 25 mM HEPES pH 7.4, 50 mM NaCl, 1 mM DTT, 10 mM NaHPO4, 5 mM MnCl2 for nsp15. The reactions were incubated at 37°C, and then aliquots of 4 µl were withdrawn at the time-points indicated in the respective images. […] All the experiments were performed at least in triplicate. • Inhibition profile curves were calculated by quantification of gel-based RNase assays. […] The inhibitory effect of rimegepant on SARS-CoV-2 multiplication in Vero E6 cells was evaluated. […] In addition, the viability of cells in culture was assessed by measuring intracellular ATP levels, using a luminescent assay as described above (CellTiter-Glo® Luminescent Cell Viability Assay). […]

[5] = biological target: SARS-CoV-2 nsp15 (Severe acute respiratory syndrome coronavirus 2, UniProt P0DTD1); assay: nsp15 endoribonuclease activity assay (gel-based, 32P-labelled 16-mer RNA); assay type: biochemical
Protocol: as §1

[6] = cited from earlier work; remark: listed apart in the source

T1 sequence (Q16602 23-461): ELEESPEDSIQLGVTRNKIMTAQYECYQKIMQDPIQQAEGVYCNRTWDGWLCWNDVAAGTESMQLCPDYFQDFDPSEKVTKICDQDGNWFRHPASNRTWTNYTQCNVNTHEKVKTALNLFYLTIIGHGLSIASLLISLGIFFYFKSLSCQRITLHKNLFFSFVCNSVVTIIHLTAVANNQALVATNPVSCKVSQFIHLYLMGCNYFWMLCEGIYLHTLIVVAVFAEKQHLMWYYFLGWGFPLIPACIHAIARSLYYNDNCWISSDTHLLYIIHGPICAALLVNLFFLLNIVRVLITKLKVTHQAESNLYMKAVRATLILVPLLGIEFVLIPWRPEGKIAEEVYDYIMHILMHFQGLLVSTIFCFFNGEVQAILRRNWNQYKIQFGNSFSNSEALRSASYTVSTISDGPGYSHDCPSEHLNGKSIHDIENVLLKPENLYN
T1 sequence (O60894 27-148): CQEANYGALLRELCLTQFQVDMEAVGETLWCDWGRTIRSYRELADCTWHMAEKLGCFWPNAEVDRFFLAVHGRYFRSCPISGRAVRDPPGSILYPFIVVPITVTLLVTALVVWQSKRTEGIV

N[C@@H]1c2cccnc2[C@H](OC(=O)N2CCC(n3c(=O)[nH]c4ncccc43)CC2)CC[C@H]1c1cccc(F)c1F [rimegepant, Rimegepant]
duration of effect after a single dose [1]: up to 48 h
duration of antiviral effect ([2]; 175 µM of rimegepant): 72 h
rescue of Vero E6 cells infected with SARS-CoV-2 ([2]; 175 µM, ATP levels): totally rescue the cells from the infection
maximum tolerated dose (MTD) ([3]; Phase I clinical trials): not found
well tolerated multiple doses ([3]; for 14 days, without significant adverse events (Tong et al 2013)): up to 600 mg
well tolerated single doses ([3]; healthy subjects, compared to placebo (Tong et al 2013)): up to 1500 mg
IC50 [4]: 1700 µM
IC50 [5]: 98.95 ± 0.28 µM
plasma concentrations achieved relative to those at 75 mg ([6]; Phase I, without finding a maximum tolerated dose): 50 times
administered dose eliminated unchanged ([6]; in vivo): Approximately 77%
bioavailability ([6]; in vivo): 64%
elimination half-life ([6]; in vivo): approximately 11 h
major metabolites (i.e., > 10%) in plasma ([6]; in vivo): no major metabolites
Cmax (maximum serum concentrations) ([6]; near the low predicted therapeutic dose of 75 mg, Phase I): 784 ng/mL
Tmax (maximum plasma concentrations achieved at) ([6]; oral administration of the orally disintegrating tablet): 1.5 h
